PubChem BioAssay (NCI)
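Cells were grown in 96-well plates and exposed to each compound for 48 hours at five concentrations; endpoints were interpolated linearly between bracketing concentrations, or set to the highest concentration if not reached. The concentration for 50% growth inhibition is given as GI50. TGI: total growth inhibition.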

What was measured:
Test in all cases: NCI-60 cell line screen, 48 h
[1] = system: RXF 393 renal
[2] = system: SW-620 colon
[3] = system: HL-60(TB) leukemia
[4] = system: SR leukemia
[5] = system: CAKI-1 renal
[6] = system: MOLT-4 leukemia
[7] = system: NCI-H23 lung
[8] = system: NCI-H522 lung
[9] = system: CCRF-CEM leukemia
[10] = system: SF-268 CNS
[11] = system: LOX IMVI melanoma
[12] = system: ACHN renal
[13] = system: EKVX NSCLC
[14] = system: SF-295 CNS
[15] = system: SF-539 CNS
[16] = system: DU-145 prostate
[17] = system: UO-31 renal
[18] = system: K-562 leukemia
[19] = system: MDA-MB-231 breast
[20] = system: IGROV1 ovarian
[21] = system: OVCAR-8 ovarian
[22] = system: SN12C renal
[23] = system: SNB-19 CNS
[24] = system: RPMI-8226 leukemia
[25] = system: SNB-75 CNS
[26] = system: U251 CNS
[27] = system: HS 578T breast
[28] = system: HCC-2998 colon

Cc1noc2c(Cc3ccccc3)nn(CC(=O)N/N=C/c3ccc(Br)cc3)c(=O)c12
TGI [1]: 12.6 µM | GI50 [2]: > 100 µM | TGI [2]: > 100 µM | GI50 [3]: > 100 µM | TGI [3]: > 100 µM | GI50 [4]: 14.7 µM | TGI [4]: > 100 µM | GI50 [5]: 5.6 µM | TGI [5]: 25.2 µM | GI50 [6]: 50.6 µM | TGI [6]: > 100 µM | GI50 [7]: 9.2 µM | TGI [7]: 41.3 µM | GI50 [8]: 12.9 µM | TGI [8]: 88.1 µM | GI50 [9]: 30.5 µM | TGI [9]: > 100 µM | GI50 [10]: 22.8 µM | TGI [10]: > 100 µM | GI50 [11]: 8.98 µM | TGI [11]: > 100 µM | GI50 [12]: 2.71 µM | TGI [12]: 6.91 µM | GI50 [13]: 31.3 µM | TGI [13]: > 100 µM | GI50 [14]: 5.79 µM | TGI [14]: 21.1 µM | GI50 [15]: 15.8 µM | TGI [15]: 36.8 µM | GI50 [16]: 76.2 µM | TGI [16]: > 100 µM | GI50 [17]: 1.91 µM | TGI [17]: 4.67 µM | GI50 [18]: 25.7 µM | TGI [18]: > 100 µM | GI50 [19]: 3.34 µM | TGI [19]: 12.7 µM | GI50 [20]: 13.5 µM | TGI [20]: 38.7 µM | GI50 [21]: 4.62 µM | TGI [21]: > 100 µM | GI50 [22]: 3.27 µM | TGI [22]: > 100 µM | GI50 [23]: 13.3 µM | TGI [23]: 30.2 µM | GI50 [24]: 29.1 µM | TGI [24]: > 100 µM | GI50 [25]: 1.74 µM | TGI [25]: 6.96 µM | GI50 [26]: 3.48 µM | TGI [26]: 30 µM | GI50 [27]: 3.06 µM | TGI [27]: 17.7 µM | GI50 [28]: > 100 µM | TGI [28]: > 100 µM
